# Reference: US20140235445A1, “PESTICIDE COMPOSITIONS INCLUDING POLYMERIC ADJUVANTS” (priority 2009, published 2014)
# System: fire ants
# Test: fire ant kill test: time to death of all fire ants in a jar coated with dried insecticide composition
# Type: in vivo
# Description: In this example a series of commercially available insecticides were tested at various dilution levels and with and without a preferred copolymer, namely the AVAIL® copolymer previously described (a 40%-60% w/w aqueous composition of a saturated sodium salt of a maleic anhydride/itaconic acid copolymer in water). In each set of test runs, the selected insecticide was tested with a population of fire ants in order to determine the time required to kill the entire population.
# In particular, in each test run 20 ml of the respective liquid insecticide composition was added to a mason jar and swirled around the inside bottom thereof. The liquid was then poured off and the remainder was allowed to dry on the inner jar surface, creating substantially a monomeric dried layer. The outside neck surface of the jar was then coated in talc, and the open end of the jar was placed into a fire ant nest. The talc coating prevented the aggressive fire ants from climbing the outer surface of the jar. A population of fire ants was thus established in each jar, and the jar was then topped with an apertured mason jar cap. The time to death of all of the fire ants was then recorded.
# In each case, the recommended concentration of insecticide was prepared (recorded as “1×”), followed by dilutions with water to create the diluted compositions. Where copolymer was used, the copolymer was added to the insecticide with gentle mixing, at a level of 30 ml per gallon. If desired, lesser amounts of copolymer could be used, e.g., 20 ml per gallon.
# In another series of tests, insecticides were tested with various copolymers having different ratios of maleic anhydride and itaconic acid moieties, and at different pH levels. In particular, respective copolymeric compositions were prepared made up ofpolymaleic acid, a 1:3 weight ratio of maleic anhydride to itaconic acid, a 1:1 weight ratio of maleic anhydride to itaconic acid, a 3:1 weight ratio of maleic anhydride to itaconic acid, and a 7:1 weight ratio of maleic anhydride to itaconic acid. Individual portions of each of these copolymers were then pH-modified using sodium hydroxide to provide, for each copolymer, portions with no pH adjustment, and with adjustment to pHs of 6, 7, and 8. These pH-modified test copolymers were then mixed with a 1/100× dilution of malathion at a level of 30 ml of copolymer per gallon of insecticide. Similarly, the same pH-adjusted copolymers were mixed with 1/20× water dilutions of permethrin, again at a level of 30 ml of copolymer per gallon of insecticide.
# The test products were then used in the same fire ant kill experiment of Example 1, giving the data of Tables 2 and 3.
# [1] = Table 1, insecticide at 1/20X dilution, copolymer, where used, 30 ml per gallon
# [2] = Table 1, insecticide at 1/10X dilution
# [3] = Table 1, insecticide at 1X (recommended concentration), time to kill entire fire ant population
structure (smiles),measurement,setting,value
"Cc1c(COC(=O)[C@H]2[C@@H](/C=C(\Cl)C(F)(F)F)C2(C)C)cccc1-c1ccccc1 (stereo in doubt) [bifenthrin, (2-methyl-3-phenylphenyl) methyl (1S,3S)-3-[(Z)-2-chloro-3,3,3-trifluoroprop-1-enyl]-2,2-dimethylcyclopropane-1-carboxylate]",TIME TO DEATH,[1],15 min
CCOP(=S)(OCC)Oc1cc(C)nc(C(C)C)n1 [Diazinon®],effect of the copolymer on kill time as compared with the insecticide itself,insecticide with copolymer vs insecticide alone,no decrease in kill times
"CCOC(=O)CC(SP(=S)(OC)OC)C(=O)OCC (centres unmarked) [malathion, 2-(dimethoxyphosphinothioylthio) butanedioic acid diethyl ester]",TIME TO DEATH,[2],2 min
same,TIME TO DEATH,[1],5 min
same,TIME TO DEATH,"Table 1, insecticide at 1/100X dilution, copolymer, where used, 30 ml per gallon",30 min
same,TIME TO DEATH,[3],1 min
same,TIME TO DEATH,"Table 2, 1/100X malathion, copolymer 30 ml per gallon, no pH adjustment (pH —)",14 min
"CC1(C)C(C=C(Cl)Cl)C1C(=O)OCc1cccc(Oc2ccccc2)c1 (centres unmarked) [permethrin, (3-phenoxyphenyl) methyl 3-(2,2-dichloroethenyl)-2,2-dimethyl-cyclopropane-1-carboxylate]",TIME TO DEATH,[2],5 min
same,TIME TO DEATH,[1],20 min
same,TIME TO DEATH,[3],5 min
same,TIME TO DEATH,"Table 1, insecticide at ⅓X dilution",5 min
